This is an account of results in US6040149A, “Assay for identifying agents which act on the ceramide-activated protein kinase, kinase suppressor of ras, and methods of using said agents” (priority 1997, dated 2000).

For one experiment, the system named is CAP kinase. The experiment in a line: Phosphorylation of Raf-1 peptides by CAP kinase. Format: biochemical, bovine (brain).
The target of experiment [1] is T1, KSR (Mus musculus, UniProt Q61097).
T1 sequence (Q61097 1-873): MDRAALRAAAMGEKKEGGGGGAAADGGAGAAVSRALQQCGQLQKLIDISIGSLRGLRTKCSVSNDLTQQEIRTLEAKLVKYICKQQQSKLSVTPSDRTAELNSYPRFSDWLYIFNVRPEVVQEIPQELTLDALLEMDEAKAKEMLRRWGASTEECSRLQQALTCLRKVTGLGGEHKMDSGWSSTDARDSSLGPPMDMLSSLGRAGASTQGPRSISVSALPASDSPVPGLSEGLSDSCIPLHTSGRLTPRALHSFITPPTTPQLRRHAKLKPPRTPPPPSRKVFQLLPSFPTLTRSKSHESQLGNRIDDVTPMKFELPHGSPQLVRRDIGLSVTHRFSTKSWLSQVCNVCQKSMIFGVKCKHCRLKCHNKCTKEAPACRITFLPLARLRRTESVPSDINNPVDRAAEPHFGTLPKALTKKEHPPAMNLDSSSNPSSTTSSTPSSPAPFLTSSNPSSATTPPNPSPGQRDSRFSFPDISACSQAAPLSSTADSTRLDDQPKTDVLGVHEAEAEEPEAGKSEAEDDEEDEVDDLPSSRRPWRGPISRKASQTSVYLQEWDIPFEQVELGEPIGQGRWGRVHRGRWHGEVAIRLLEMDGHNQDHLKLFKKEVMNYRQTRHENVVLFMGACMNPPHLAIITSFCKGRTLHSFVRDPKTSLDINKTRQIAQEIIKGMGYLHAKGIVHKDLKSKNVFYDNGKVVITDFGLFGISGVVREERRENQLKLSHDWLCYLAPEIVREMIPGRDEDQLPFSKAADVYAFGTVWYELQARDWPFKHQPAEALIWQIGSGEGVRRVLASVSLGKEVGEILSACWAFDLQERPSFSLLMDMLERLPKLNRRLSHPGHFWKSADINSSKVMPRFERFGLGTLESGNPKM
The experiment in a line: KSR activity toward Raf-1 peptides in vitro. Format: biochemical, mouse (KSR immunoprecipitated from COS-7 cells). Details: Raf-1 peptides as substrate. How it is done:
The wild type peptide contains eight potential phosphorylation sites (shown in bold). Substitution of alanines and glycines for serines and threonines generated one peptide (TTLP-peptide) containing only two potential phosphorylation sites (Thr^268,269) and another peptide (AALP-peptide) with no potential phosphorylation sites.
FIG. 28A--Flag-tagged KSR was immunoprecipitated from 0.2 mg COS-7 lysate, and assayed with TTLP- or AALP-peptides in the presence of 30 nM ceramide (Avanti) or diluent (DMSO). Background counts per minute (cpm) derived from samples incubated with the AALP-peptide which contains no phosphorylation sites were subtracted from all points. Background cpm always represented less than 25% of the untreated total.
FIG. 28B--Flag-tagged KSR immunoprecipitated from 0.2 mg COS-7 lysate was assayed with TTLP- or AALP-peptides in the presence of ceramide or diluent for 45 min as described in FIG. 7A.
FIG. 28C--Flag-tagged KSR was immunoprecipitated from 0.15 mg COS-7 lysate and assayed with TTLP- or AALP-peptides for 20 min in the presence of 30 nM of the indicated lipid second messengers as described in FIG. 28A (AA: arachidonic acid; LPA: lyso phosphatidic acid; PMA: phorbol 12-myristate 13-acetate; DAG: 1,2-diacylglycerol).
KSR-bound beads were incubated with reaction buffer B plus 10 mM MnCl2, 5 μM ATP and [γ-^32 P]ATP at 22° C. for the period of time indicated in the presence of 0.3 mM synthetic Raf-peptide or substrate peptides specific for other Ser/Thr protein kinases. […] (SEQ ID NO.3). Substitution of glycines and alanines for serines and threonines generated one peptide (termed TTLP-peptide) containing only two potential phosphorylation sites at Thr^268,269 (in bold), […] (SEQ ID NO. 24), and another peptide (termed AALP-peptide; SEQ ID No.6) with no potential phosphorylation sites, […] (SEQ ID No.25). The amino acid sequences of substrate peptides specific for other protein kinases (Joseph et al., 1993) are: […] (SEQ ID NO.26) (PKA); […] (SEQ ID NO.27) (S6 kinase); […] (SEQ ID NO.28)(CK II); […] (SEQ ID NO.29) (CaM kinase II); and […] (SEQ ID NO.30) (PKC). […] Substrate peptides for PKA and PKC were from Sigma (St. Louis, Mo.). The reaction was stopped by addition of a stop solution containing 0.5 M ATP in 90% formic acid. The beads were removed by centrifugation at 5000×g for 2 min and the supernatant was loaded on P81 Whatman filter paper. The filter was air dried and washed in 4 mM Na2 H2 P2 O7, 1 mM acetic acid for one hour. The filter was baked at 90° C. for 10 min and quantified by Cerenkov counting using a Beckman LS 5000TD scintillation counter. In some experiments, samples were separated by C18 reverse-phase chromatography on HPLC (Mathias et al., 1991) to verify the results of the filter assay. Virtually identical results were obtained with both methods.

Experiment [2] has as its target T1, KSR. The experiment in a line: KSR autophosphorylation after treatment of COS-7 cells expressing KSR. The experiment is classed as cell-based, mouse (KSR expressed in COS-7 cells). How it is done: FIG. 23A--COS-7 cells were transfected as in FIG. 22A and placed in serum-free medium. After 4 hours, cells were stimulated for 10 min with the ceramide analog, C2-ceramide (Biomol), at the concentrations indicated. Cells were lysed with NP-40 lysis buffer, and Flag-tagged KSR (0.8 mg protein for each point) was immunoprecipitated and assayed for autophosphorylation activity as described in Experimental Procedures. The autoradiogram was exposed for 1 hour. KSR is expressed at similar levels in each sample as monitored by Western blot (data not shown). Data represent one of three similar experiments.
(§1) COS-7 cells expressing Flag-tagged KSR were stimulated with 10 nM TNFα for the times indicated and lysed with NP-40 buffer as in FIG. 2A. […] The autoradiogram was exposed for 1 hour. Data represent one of three similar experiments.
KSR was immunoprecipitated as above from 0.8 mg NP-40 lysate protein with 40 μl agarose-conjugated anti-Flag antibody at 4° C. for 4 hrs or overnight. […] The reaction was stopped by addition of Laemmli sample buffer. Samples were resolved by 7.5% sodium dodecyl sulfate-polyacrylamide gel electrophoresis (SDS-PAGE) and autoradiographed.

For experiment [3], the target named is T1, KSR. In words: Phosphorylation and activation of recombinant Raf-1 by KSR immunoprecipitated from treated COS-7 cells. Format: cell-based, mouse (KSR expressed in COS-7 cells). The conditions noted are these: C2-ceramide 1 μM; TNFα 10 nM. On the procedure:
FIGS. 23B-23C--COS-7 cells expressing Flag-tagged KSR were stimulated with 1 μM C2-ceramide for 10 min and lysed with NP-40 buffer as in FIG. 23A. […] The autoradiogram was exposed for 1 hour. Data represent one of three experiments.
as §1
Immunoprecipitated KSR was incubated with reaction buffer A containing 0.5 mM ATP and a protein kinase inhibitor cocktail [20 μM PKC inhibitor peptide (UBI), 2 μM protein kinase A inhibitor peptide (UBI) and 20 μM R24571 (Sigma)] for 30 min at 22° C.

The subject of the next experiment is KSR/Raf-1 complex. The experiment in a line: Co-immunoprecipitation of KSR and Raf-1 from treated COS-7 cells. The experiment is classed as cell-based, mouse KSR (COS-7 cells). On the procedure:
FIG. […] Cells were lysed with NP-40 buffer and subjected to 4 hr of immunoprecipitation with anti-Raf-1 antibody. Two controls, KSR and KSR with ceramide treatment, received protein A conjugated sepharose beads without anti-Raf-1 antibody. […] Data represent one of four similar experiments.
Cell lysates were subjected to immunoprecipitation with anti-Flag antibody. Immunoprecipitated samples were handled as in FIG. 24A except Western blot analysis was performed with anti-Raf-1 antibody. Data represent one of three similar experiments.
Anti-Raf-1 antibody conjugated beads were prepared by overnight incubation of 2 μl of anti-Raf-1 antibody (a kind gift of Dr. Debbie Morrison) with 5 mg of the protein A conjugated sepharose beads, followed by washing three times with NP-40 lysis buffer. […] Lysates (0.8 mg total protein) were then incubated for 4 hrs with anti-Raf-1 bound sepharose beads or anti-Flag conjugated agarose beads. The beads were washed vigorously 5 times, boiled in Laemmli sample buffer, and proteins were separated on 7.5% SDS-PAGE. After electrophoresis, the gel was transferred to PVDF membrane and probed with anti-Flag antibody or anti-Raf-1 antibody.

In the case of “RQRSTSTPNVHMVSTTLPVDSRMIE [wild type Raf-peptide]”, in the experiment with CAP kinase, the “phosphorylation of Raf-1 peptide by CAP kinase” value was “phosphorylated”. For the same compound, the “phosphorylation of peptide by KSR” value with KSR [1] is listed as “phosphorylated to the same extent”.

Turning to `CCCCCCCCCCCCC/C=C/[C@@H](O)[C@H](CO)NC(C)=O` [C2-ceramide], at KSR [2] (C2-ceramide), the “concentration of maximal effect” value was determined as 40 µM and the “lowest effective concentration (KSR activity)” value was determined as 50 nM. For the same compound, at KSR [2] (COS-7, 10 min, 40 μM C2-ceramide, read-out: maximal enhancement of KSR autophosphorylating activity), the fold induction at 40 µM was 5 to 10. Moreover, the “activity of immunoprecipitated KSR to phosphorylate and activate Raf-1” value at KSR [3] is “markedly enhanced”. For the same compound, the “co-immunoprecipitation of KSR with Raf-1” value with KSR/Raf-1 complex (50 μM C2-ceramide, anti-Raf-1 precipitation) is on record as “significantly enhanced”. Besides, the “co-immunoprecipitation of Raf-1 with KSR” value in the experiment with KSR/Raf-1 complex (C2-ceramide, anti-Flag precipitation) is recorded as “dramatically enhanced”.
